Values of other authors, collected in US20200095192A1, “BIODEGRADABLE DIETHANOLAMINE DERIVATIVE CHELATING AGENT AND PREPARATION PROCESS THEREOF” (PTT Global Chemical Public Company Limited, priority 2017, published 2020).
Read-outs that look alike come from different tables or passages of the source.

How the values were obtained:
[1] = copper (Cu2+); previous disclosed chelating agent; cited from earlier work
[2] = cobolt (Co^2+); previous disclosed chelating agent; cited from earlier work
[3] = cadmium (Cd^2+); previous disclosed chelating agent; cited from earlier work
[4] = magnesium (Mg^2+); previous disclosed chelating agent; cited from earlier work
[5] = iron (Fe^2+); previous disclosed chelating agent; cited from earlier work
[6] = strontium (Sr^2+); previous disclosed chelating agent; cited from earlier work
[7] = iron (Fe^3+); previous disclosed chelating agent; cited from earlier work
[8] = aluminium (Al^3+); previous disclosed chelating agent; cited from earlier work
[9] = calcium (Ca^2+); previous disclosed chelating agent; cited from earlier work
[10] = barium (Ba^2+); previous disclosed chelating agent; cited from earlier work
[11] = manganese (Mn^2+); previous disclosed chelating agent; cited from earlier work
[12] = mercury (Hg^2+); previous disclosed chelating agent; cited from earlier work
[13] = nickel (Ni^2+); previous disclosed chelating agent; cited from earlier work
[14] = zinc (Zn^2+); previous disclosed chelating agent; cited from earlier work
[15] = tin (Pb^2+); previous disclosed chelating agent; cited from earlier work

| Compound | stability constant [1] | stability constant [2] | stability constant [3] | stability constant [4] | stability constant [5] | stability constant [6] | stability constant [7] | stability constant [8] | stability constant [9] | stability constant [10] | stability constant [11] | stability constant [12] | stability constant [13] | stability constant [14] | stability constant [15] |
| --- | --- | --- | --- | --- | --- | --- | --- | --- | --- | --- | --- | --- | --- | --- | --- |
| O=C(O)CN(CCN(CC(=O)O)CC(=O)O)CC(=O)O [EDTA, ethylenediamineteraacetic acid] | 18.8 | 16.5 | 16.5 | 8.8 | 14.3 | 8.7 | 25.1 | 16.4 | 10.7 | 7.9 | 13.9 | 21.5 | 18.4 | 16.5 | 18.0 |
| O=C(O)CN(CC(=O)O)CC(=O)O [NTA, nitrilotriacetic acid] | 13.0 | 10.4 | 9.8 | 5.5 | 8.9 | 5.0 | 15.9 | 11.4 | 6.4 | 4.8 | 7.5 | 14.3 | 11.5 | 10.7 | 11.5 |
| O=C(O)CC[C@@H](C(=O)O)N(CC(=O)O)CC(=O)O [GLDA, glutamic acid N,N-diacetic acid] | 13.1 | 10.0 | 9.1 | 5.2 | 8.7 | 4.1 | 11.7 | 12.2 | 5.9 | 3.5 | 7.6 | 14.3 | 10.9 | 10.0 | 10.5 |
| O=C(O)CN(CCO)CC(=O)O [EDG, ethanol diglycine] | 11.8 | 8.0 | 7.4 | 6.2 | 13.4 | 5.2 | 21.6 | 7.7 | 4.7 | 3.4 | 10.0 | 19.8 | 18.2 | 15.2 | 13.6 |
